Molecules are shown by their SMILES. Read-outs that look alike come from different tables or passages of the source.

In one assay the test system is IL-1β. As to the kind of experiment: PBMC assay: inhibition of IL-1β release after LPS stimulation (MSD). Type of assay: cell-based. Particulars: human PBMCs, 100 ng/ml LPS for 6 hrs, MSD, 96 well plates, read-out: IL1β IC50. An outline of the steps:
(§1)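 Cryopreserved human PBMCs (7.5×10^4/well) in RPMI/10% FBS were preincubated with serially diluted compound for 30 min at 37 °C, then stimulated with 100 ng/ml LPS for 6 h. Supernatant IL-1β and TNF measured by MSD. IC50 derived for IL-1β, EC50 for TNF.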

Another assay concerns TNF. As to the kind of experiment: PBMC assay: TNF cytokine levels after LPS stimulation (MSD). Particulars: human PBMCs, 100 ng/ml LPS for 6 hrs. Type of assay: cell-based. The procedure, abridged: as §1

As to `CC(C)c1nn(CC(=O)NC2CC(C(F)(F)F)C2)c(=O)c2ccc(C(F)(F)F)cc12` (stereo not shown) [Final Cpd X77], the IC50 with IL-1β (Homo sapiens, PBMC, 6 h) was found to be 0.83 µM. In addition, the 50% effective concentration (EC50) with TNF (Homo sapiens, PBMC, 6 h) was more than 20 µM.
The like results for `CC(C)c1nn(CC(=O)N[C@H]2CC[C@](C)(O)CC2)c(=O)c2ccc(C(F)(F)F)cc12` [Final Cpd X78] were, in that order, 0.861 µM and more than 20 µM.
The corresponding values for `Cc1cnc2ccc(NC(=O)Cn3nc(C(C)C)c4cc(C(F)(F)F)ccc4c3=O)cn12` [Final Cpd X79] are 0.865 µM and more than 20 µM.
For `CC(C)c1nn(CC(=O)Nc2ncc3c(ncn3C)n2)c(=O)c2ccc(C(F)(F)F)cc12` [Final Cpd X80], the IC50 in the assay with IL-1β (Homo sapiens, PBMC, 6 h) was found to be 0.866 µM. Besides, in the assay on TNF (Homo sapiens, PBMC, 6 h), the EC50 was more than 20 µM.
The like results for `CC(C)c1nn(CC(=O)N[C@H]2CN(CC[C@H](C)O)CC[C@H]2O)c(=O)c2ccc(C(F)(F)F)cc12` [Final Cpd X81] were, in that order, 0.879 µM and more than 20 µM.
The like results for `CC(C)c1nn(CC(=O)Nc2ccc3nncn3n2)c(=O)c2c(O)cc(C(F)(F)F)cc12` [Final Cpd X82] were, in that order, 0.888 µM and 12.9 µM.
For `CC(C)c1nn(CC(=O)N[C@H]2CN(C3CC(F)(F)C3)CC[C@H]2O)c(=O)c2ccc(C(F)(F)F)cc12` [Final Cpd X83], the IC50 in the assay with IL-1β (Homo sapiens, PBMC, 6 h) worked out at 0.91 µM. In addition, a half-maximal response with TNF (Homo sapiens, PBMC, 6 h) (EC50) required 12.9 µM.
The corresponding values for `C[C@]1(O)C[C@@H](NC(=O)Cn2nc(C(O)C(F)(F)F)c3cc(C(F)(F)F)ccc3c2=O)C1` (stereo partly shown) [Final Cpd X84] are 0.911 µM and more than 20 µM.
The like results for `CC(c1nn(CC(=O)N[C@H]2C[C@@](C)(O)C2)c(=O)c2ccc(C(F)(F)F)cc12)C(F)(F)F` (stereo partly shown) [Final Cpd X85] were, in that order, 0.915 µM and more than 20 µM.
The corresponding values for `CC(C)c1nn(CC(=O)N[C@@H]2CCC[C@H]2O)c(=O)c2ccc(C(F)(F)F)cc12` [Final Cpd X86] are 0.915 µM and more than 20 µM.
Turning to `CC(C)c1nn(CC(=O)Nc2ccc3nnc(C(F)(F)F)n3n2)c(=O)c2ccc(C(F)(F)F)cc12` [Final Cpd X87], in the assay on IL-1β (Homo sapiens, PBMC, 6 h), the IC50 was 0.916 µM. The EC50 with TNF (Homo sapiens, PBMC, 6 h) is more than 20 µM.
The corresponding values for `CC(C)c1nn(CC(=O)Nc2ccc3c(C#N)ncn3c2)c(=O)c2ccc(C(F)(F)F)cc12` [Final Cpd X88] are 0.924 µM and more than 20 µM.
The like results for `CC(C)c1nn(CC(=O)NC2CCc3nncn3C2)c(=O)c2ccc(C(F)(F)F)cc12` (stereo not shown) [Final Cpd X89] were, in that order, 0.924 µM and more than 20 µM.
Consider `CC(C)c1nn(CC(=O)N[C@H]2CC[C@@H]2O)c(=O)c2ccc(C(F)(F)F)cc12` [Final Cpd X91], for which the IC50 in the assay with IL-1β was determined as 0.954 µM. The EC50 in the assay with TNF was more than 20 µM.
For the compound `Cc1cc(NC(=O)Cn2nc(C(C)C)c3cc(C(F)(F)F)ccc3c2=O)cn2ccnc12` [Final Cpd X92], the IC50 in the assay on IL-1β (Homo sapiens, PBMC, 6 h) came out at 0.97 µM. The compound also yielded a concentration for a half-maximal effect (EC50) with TNF (Homo sapiens, PBMC, 6 h) of more than 20 µM.
On to `Cn1nc(NC(=O)Cn2nc(C3CC3)c3cc(C(F)(F)F)ccc3c2=O)ccc1=O` [Final Cpd X93], for which the IC50 in the assay on IL-1β (Homo sapiens, PBMC, 6 h) is 1.01 µM. Also, the EC50 in the assay with TNF (Homo sapiens, PBMC, 6 h) was more than 20 µM.
The like results for `CC(C)c1nn(CC(=O)N[C@H]2C[C@H](O)C2)c(=O)c2ccc(C(F)(F)F)cc12` [Final Cpd X94] were, in that order, 1.07 µM and more than 20 µM.
The like results for `CC(C)c1nn(CC(=O)N[C@@H]2CC[C@@H]2O)c(=O)c2ccc(C(F)(F)F)cc12` [Final Cpd X95] were, in that order, 1.1 µM and more than 20 µM.
With `CC(C)c1nn(CC(=O)Nc2nc(Cl)c3ncn(C)c3n2)c(=O)c2ccc(C(F)(F)F)cc12` [Final Cpd X96], the IC50 with IL-1β (Homo sapiens, PBMC, 6 h) stood at 1.11 µM. For the same compound, the EC50 in the assay on TNF (Homo sapiens, PBMC, 6 h) was more than 20 µM.
The like results for `CC(C)c1nn(CC(=O)Nc2ccc3nc(C#N)cn3c2)c(=O)c2ccc(C(F)(F)F)cc12` [Final Cpd X97] were, in that order, 1.12 µM and more than 20 µM.
In the case of `CC(C)c1nn(CC(=O)N[C@@H]2CCCC[C@H]2O)c(=O)c2ccc(C(F)(F)F)cc12` [Final Cpd X98], the IC50 in the assay with IL-1β (Homo sapiens, PBMC, 6 h) was found to be 1.15 µM. In addition, in the assay with TNF (Homo sapiens, PBMC, 6 h), the EC50 is more than 20 µM.
The like results for `CC(C)c1nn(CC(=O)N[C@H]2C[C@H](C(C)(C)O)C2)c(=O)c2ccc(C(F)(F)F)cc12` [Final Cpd X99] were, in that order, 1.16 µM and more than 20 µM.
The like results for `CC(C)c1nn(CC(=O)N[C@@H]2CC[C@](C)(O)C2)c(=O)c2ccc(C(F)(F)F)cc12` [Final Cpd X100] were, in that order, 1.26 µM and more than 20 µM.
The like results for `CC(C)c1nn(CC(=O)Nc2ccc3cnnn3c2)c(=O)c2ccc(C(F)(F)F)cc12` [Final Cpd X101] were, in that order, 1.28 µM and more than 20 µM.
Regarding `COC(C)c1nn(CC(=O)Nc2ccc3nncn3c2)c(=O)c2ccc(C(F)(F)F)cc12` (stereo not shown) [Final Cpd X102], the IC50 with IL-1β (Homo sapiens, PBMC, 6 h) was 1.3 µM. Besides, the EC50 in the assay with TNF (Homo sapiens, PBMC, 6 h) was more than 20 µM.
The like results for `CC(O)c1nn(CC(=O)Nc2ccncn2)c(=O)c2ccc(C(F)(F)F)cc12` (stereo not shown) [Final Cpd X103] were, in that order, 1.32 µM and more than 20 µM.
The like results for `CC(C)c1nn(CC(=O)N[C@H]2CN(C3COC3)CC[C@H]2O)c(=O)c2ccc(C(F)(F)F)cc12` [Final Cpd X104] were, in that order, 1.41 µM and more than 20 µM.
The corresponding values for `CO[C@H]1C[C@H](NC(=O)Cn2nc(C(C)C)c3cc(C(F)(F)F)ccc3c2=O)C1` [Final Cpd X105] are 1.52 µM and more than 20 µM.
For `CC(C)c1nn(CC(=O)N[C@@H]2CCc3nncn3C2)c(=O)c2ccc(C(F)(F)F)cc12` [Final Cpd X106], the IC50 in the assay with IL-1β (Homo sapiens, PBMC, 6 h) came to 1.61 µM. In the assay on TNF (Homo sapiens, PBMC, 6 h), this compound registered an EC50 of more than 20 µM.
In the case of `COC(C)c1nn(CC(=O)N[C@H]2C[C@@](C)(O)C2)c(=O)c2ccc(C(F)(F)F)cc12` (stereo partly shown) [Final Cpd X107], in the assay on IL-1β (Homo sapiens, PBMC, 6 h), the IC50 stood at 1.61 µM. In the assay on TNF (Homo sapiens, PBMC, 6 h), this compound came in with an EC50 of more than 20 µM.
The like results for `CC(C)c1nn(CC(=O)N[C@H]2C[C@@H](C(C)(C)O)C2)c(=O)c2ccc(C(F)(F)F)cc12` [Final Cpd X108] were, in that order, 1.63 µM and more than 20 µM.
The like results for `CC(C)c1nn(CC(=O)N[C@@H]2CC[C@@](C)(O)C2)c(=O)c2ccc(C(F)(F)F)cc12` [Final Cpd X110] were, in that order, 1.64 µM and more than 20 µM.
The like results for `COC(C)c1nn(CC(=O)Nc2ccncn2)c(=O)c2ccc(C(F)(F)F)cc12` (stereo not shown) [Final Cpd X111] were, in that order, 1.7 µM and 7.93 µM.
Take `CC(C)c1nn(CC(=O)Nc2ccn(C)c(=O)n2)c(=O)c2ccc(C(F)(F)F)cc12` [Final Cpd X112]: the concentration for half-maximal inhibition (IC50) with IL-1β (Homo sapiens, PBMC, 6 h) came to 1.73 µM. This compound registered an EC50 in the assay on TNF (Homo sapiens, PBMC, 6 h) of more than 20 µM.
The like results for `CC(C)c1nn(CC(=O)Nc2ccc3c(c2)nnn3C)c(=O)c2ccc(C(F)(F)F)cc12` [Final Cpd X113] were, in that order, 1.86 µM and more than 20 µM.
The corresponding values for `CC(C)c1nn(CC(=O)Nc2ccc3cnn(C)c3c2)c(=O)c2ccc(C(F)(F)F)cc12` [Final Cpd X114] are 1.94 µM and more than 20 µM.
On to `CC(C)c1nn(CC(=O)N[C@@H]2CC[C@@H]2O)c(=O)c2ccc(C(F)(F)F)cc12` [Final Cpd X115], for which, in the assay on IL-1β, the IC50 was 2.02 µM. In the assay with TNF, this compound had an EC50 of more than 20 µM.
Consider `CO[C@H]1C[C@@H](NC(=O)Cn2nc(C(C)C)c3cc(C(F)(F)F)ccc3c2=O)C1` [Final Cpd X116], for which the IC50 in the assay with IL-1β (Homo sapiens, PBMC, 6 h) came out at 2.09 µM. Moreover, the half-maximal effective concentration (EC50) with TNF (Homo sapiens, PBMC, 6 h) is more than 20 µM.

Values taken from patent publication US20230202989A1, “COMPOUNDS” (JANSSEN PHARMACEUTICA NV, priority 2020, published 2023).
